Assay results taken from patent US7425557B2, “Inhibitors of glycogen synthase kinase 3” (Novartis Vaccines and Diagnostics, Inc., priority 1998, dated 2008).

Tests used:
human GSK3β = human GSK3β (Homo sapiens, UniProt P49841); assay: Screening for GSK3 inhibitory activity using a cell-free assay; assay type: biochemical; details: read-out: IC50 with respect to GSK3
In short: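 Compounds in DMSO were tested against human GSK3β over a three-hour kinase reaction. Radiolabeled phosphate transferred to the peptide was captured on streptavidin plates after EDTA/ATP stop and quantified by scintillation counting. Signal was plotted versus compound concentration.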

human GSK3β, sequence (P49841 whole entry): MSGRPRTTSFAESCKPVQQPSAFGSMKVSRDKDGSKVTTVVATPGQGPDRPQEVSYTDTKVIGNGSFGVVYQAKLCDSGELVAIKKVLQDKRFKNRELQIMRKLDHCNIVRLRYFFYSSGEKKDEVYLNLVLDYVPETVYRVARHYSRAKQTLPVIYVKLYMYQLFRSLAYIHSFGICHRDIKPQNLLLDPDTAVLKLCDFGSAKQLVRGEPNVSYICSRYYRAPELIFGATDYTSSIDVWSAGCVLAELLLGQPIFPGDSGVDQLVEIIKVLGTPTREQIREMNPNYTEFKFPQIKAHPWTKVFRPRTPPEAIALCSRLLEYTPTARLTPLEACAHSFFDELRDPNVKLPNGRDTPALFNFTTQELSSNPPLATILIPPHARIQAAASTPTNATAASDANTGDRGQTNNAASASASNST

| Compound | IC50 (human GSK3β) [nM] | melting point |
| --- | --- | --- |
| CC(C)(C)OC(=O)c1cnc(NCCNc2ccc([N+](=O)[O-])cn2)nc1-c1ccc(C#N)cc1 [tert-butyl 4-(4-cyanophenyl)-2-({2-[(5-nitro(2-pyridyl))amino]-ethyl}amino)pyrimidine-5-carboxylate] | ≤ 1000 |  |
| CCc1ccc(-c2nc(NCCNc3ccc(C#N)cn3)ccc2N2CCN(C)CC2=O)cc1 [6-[(2-{[6-(4-ethylphenyl)-5-(4-methyl-2-oxo-1-piperazinyl)-2-pyridinyl]amino}ethyl)amino]nicotinonitrile] | ≤ 10000 |  |
| NC(=O)c1ccc(-c2ccnc(NCC(c3ccccc3)c3ccccc3)n2)cc1 [4-{2-[(2,2-diphenylethyl)amino]pyrimidin-4-yl}-benzamide] | ≤ 10000 |  |
| O=[N+]([O-])c1ccc(NCCNc2nccc(NCc3ccc(Cl)cc3Cl)n2)nc1 | ≤ 10000 |  |
| Nc1nc(NCCNc2ncc(-c3ncc[nH]3)c(-c3ccccc3Cl)n2)ccc1[N+](=O)[O-] [{2-[(6-amino-5-nitro(2-pyridyl))amino]ethyl}[4-(2-chlorophenyl)-5-imidazol-2-ylpyrimidin-2-yl]amine] | ≤ 1000 |  |
| Cc1nc(NCCNc2ccc([N+](=O)[O-])cn2)ncc1C(=O)NC(Cc1ccccc1)C(N)=O (stereo not shown) [N-(1-carbamoyl-2-phenylethyl)[4-methyl-2-({2-[(5-nitro(2-pyridyl))amino]ethyl}amino)pyrimidin-5-yl]carboxamide] | ≤ 10000 |  |
| N#Cc1ccc(-c2ccnc(NCCc3ccccn3)n2)cc1 [4-{2-[(2-(2-pyridyl)ethyl)-amino]pyrimidin-4-yl}benzenecarbonitrile] | ≤ 10000 |  |
| O=C(NCC1CCNCC1)c1ccc(-c2ccnc(NCCNc3ccc([N+](=O)[O-])cn3)n2)cc1 [{4-[2-({2-[(5-nitro(2-pyridyl))amino]ethyl}amino)pyrimidin-4-yl]phenyl}-N-(4-piperidylmethyl)carboxamide] | ≤ 10000 |  |
| CCCCOc1ccc(-c2nc(NCCNc3ccc([N+](=O)[O-])cn3)ncc2C(=O)OCC)cc1 [ethyl 4-(4-butoxyphenyl)-2-({2-[(5-nitro(2-pyridyl))amino]ethyl}amino)pyrimidine-5-carboxylate] | ≤ 10000 |  |
| Cc1cn(-c2cnc(NCCNc3ccc([N+](=O)[O-])c(N)n3)nc2-c2ccc(Cl)cc2Cl)c(C)n1 | ≤ 1000 |  |
| O=[N+]([O-])c1ccc(NCCNc2nccc(-c3ccc(S(=O)(=O)NCc4cccc(Br)c4)cc3)n2)nc1 [[(3-bromophenyl)methyl]({4-[2-({2-[(5-nitro(2-pyridyl))amino]ethyl}-amino)pyrimidin-4-yl]phenyl}sulfonyl)amine] | ≤ 10000 |  |
| O=C(O)c1c(-c2ccc([N+](=O)[O-])cc2)nc(NCCNc2ccc([N+](=O)[O-])cn2)nc1-c1cccc([N+](=O)[O-])c1 [2-({2-[(5-nitro(2-pyridyl))amino]ethyl}amino)-4-(3-nitrophenyl)-6-(4-nitrophenyl)pyrimidine-5-carboxylic acid] | ≤ 10000 |  |
| O=[N+]([O-])c1ccc(NCCNc2ncc(CO)c(-c3ccc(Cl)cc3Cl)n2)nc1 [[4-(2,4-dichlorophenyl)-2-({2-[(5-nitro(2-pyridyl))amino]ethyl}amino)-pyrimidin-5-yl]methan-1-ol] | ≤ 1000 |  |
| N#Cc1ccc(-c2nc(NCCNc3ccc([N+](=O)[O-])cn3)ncc2C(N)=O)cc1 [4-(4-cyanophenyl)-2-({2-[(5-nitro(2-pyridyl))-amino]ethyl}amino)pyrimidine-5-carboxamide] | ≤ 1000 |  |

Second part, the compound after the results:

| IC50 (human GSK3β) [nM] | melting point | Compound |
| --- | --- | --- |
| ≤ 1000 | 223 to 225 °C (dec.) | O=[N+]([O-])c1ccc(NCCNc2nccc(-c3ccc(N4CCOCC4)cc3)n2)nc1 [[4-(4-morpholin-4-ylphenyl)-pyrimidin-2-yl]{2-[(5-nitro(2-pyridyl))amino]ethyl}amine] |
| ≤ 10000 |  | CCOC(=O)c1cnc(NCCc2ccccn2)nc1-c1cccc([N+](=O)[O-])c1 [ethyl 4-(3-nitrophenyl)-2-[(2-(2-pyridyl)ethyl)-amino]pyrimidine-5-carboxylate] |
| ≤ 1000 |  | N#Cc1ccc(-c2nc(NCCNc3ccc([N+](=O)[O-])cn3)ncc2C(=O)NCc2ccncc2)cc1 [[4-(4-cyanophenyl)-2-({2-[(5-nitro(2-pyridyl))-amino]ethyl}amino)pyrimidin-5-yl]-N-(4-pyridylmethyl)carboxamide] |
| ≤ 10000 |  | Cc1cnc(NCCNc2ccccn2)nc1-c1ccc(Cl)cc1 [[4-(4-chlorophenyl)-5-methylpyrimidin-2-yl][2-(2-pyridylamino)ethyl]amine] |
| ≤ 1000 |  | CCOC(=O)c1cnc(NCCNc2ccc([N+](=O)[O-])cn2)nc1-c1ccc(C)cc1 [ethyl 4-(4-methylphenyl)-2-({2-[(5-nitro(2-pyridyl))amino]ethyl}amino)pyrimidine-5-carboxylate] |
| ≤ 1000 |  | O=[N+]([O-])c1ccc(NCCN(CCN2CCCC2)c2ncc(-n3ccnc3)c(-c3ccc(Cl)cc3Cl)n2)nc1 [[4-(2,4-dichlorophenyl)-5-imidazolylpyrimidin-2-yl]{2-[(5-nitro(2-pyridyl))amino]ethyl}(2-pyrrolidinylethyl)amine] |
| ≤ 1000 |  | Nc1nc(NCCNc2ncc(C(=O)O)c(-c3ccc([N+](=O)[O-])cc3)n2)ccc1[N+](=O)[O-] |
| ≤ 1000 |  | CCOC(=O)c1c(-c2ccc(C(N)=O)cc2)nc(NCCNc2ccc([N+](=O)[O-])cn2)nc1-c1ccc([N+](=O)[O-])cc1 [ethyl 4-(4-carbamoylphenyl)-2-({2-[(5-nitro(2-pyridyl))amino]ethyl}-amino)-6-(4-nitrophenyl)pyrimidine-5-carboxylate] |
| ≤ 1000 |  | Cc1c[nH]c(-c2cnc(NCCNc3ccc([N+](=O)[O-])c(N)n3)nc2-c2ccc(Br)cc2Cl)n1 [{2-[(6-amino-5-nitro(2-pyridyl))amino]ethyl}[4-(4-bromo-2-chlorophenyl)-5-(4-methylimidazol-2-yl)pyrimidin-2-yl]amine] |
| ≤ 10000 |  | c1ccc(Cc2cnc(NCCNc3ccccn3)nc2-c2ccccc2)cc1 [[4-phenyl-5-benzyl-pyrimidin-2-yl][2-(2-pyridylamino)ethyl]amine] |
| ≤ 10000 |  | O=C(NCc1cccc(C(F)(F)F)c1)c1ccc(-c2ccnc(NCCNc3ccc([N+](=O)[O-])cn3)n2)cc1 [{4-[2-({2-[(5-nitro(2-pyridyl))amino]ethyl}amino)pyrimidin-4-yl]phenyl}-N-{[3-(trifluoromethyl)phenyl]methyl}carboxamide] |
| ≤ 1000 |  | CCOC(=O)c1cnc(NCCNc2ccc([N+](=O)[O-])c(N)n2)nc1-c1ccc(N2CCOCC2)cc1 [ethyl 2-({2-[(6-amino-5-nitro(2-pyridyl))amino]-ethyl}amino)-4-(4-morpholin-4-ylphenyl)pyrimidine-5-carboxylate] |
| ≤ 1000 |  | CC(=O)Nc1cnc(NCCNc2ccc([N+](=O)[O-])cn2)nc1-c1ccc(Cl)cc1Cl [N-[4-(2,4-dichlorophenyl)-2-({2-[(5-nitro(2-pyridyl))amino]ethyl}amino)pyrimidin-5-yl]-acetamide] |
